Test results taken from ChEMBL document CHEMBL5108004, “An auristatin-based peptide-drug conjugate targeting Kita-Kyushu lung cancer antigen 1 for precision chemoradiotherapy in gastric cancer” (Eur J Med Chem, 2022).
pIC50: −log10 of the molar value. Activity calls are given as the source filed them. The calls are words filed in the database; no cut-off is given here. *1 amine or outer side, *2 acyl side, *3 side chain or, on linkers, in order; H or OH if unused. Where a SMILES comes first, the peptide text is derived from it. Bridges are numbered along the chain shown (N, C = ends). Roman numbers before positions name the chains, in order. [ ]: non-standard residue; d: D form. The star is where a group is joined. Hexanoyl(6-succinimido-3yl) = O=C1CC([*:1])C(=O)N1CCCCCC(=O)[*:2]; Dolaproine = CO[C@@H]([C@@H]1CCCN1)[C@@H](C)C(=O)O; Dil = CC[C@H](C)[C@H](NC)[C@@H](CC(=O)O)OC; PABC = O=C(OCc1ccc(N[*:1])cc1)[*:2]; X1 = C[C@@H](N*)[C@@H](O)c1ccccc1; Cit = NC(=O)NCCC[C@H](N)C(=O)O; NMeV = CN[C@H](C(=O)O)C(C)C

Legend:
[1] = biological target: T1, Kita-kyushu lung cancer antigen 1 (Homo sapiens) (UniProt Q5H943); assay: Binding affinity to recombinant KK-LC-1 (unknown origin) using FITC-labeled compound at 0.1 to 1000 uM incubated for 2 hrs and measured by FLISA assay; conditions: dose 0.1-1000 µM
T1 sequence (whole entry): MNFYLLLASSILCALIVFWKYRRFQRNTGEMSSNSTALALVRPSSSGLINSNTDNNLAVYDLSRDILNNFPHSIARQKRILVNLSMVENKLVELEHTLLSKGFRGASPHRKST

[2] = biological target: T1, Kita-kyushu lung cancer antigen 1 (Homo sapiens); assay: Binding affinity to KK-LC-1 in KK-LC-1-positive human NUGC-4 cells using FITC-labeled compound at 1 to 1000 uM incubated for 30 mins and measured by flow cytometry assay; type: cell-based; conditions: dose 1-1000 µM
[3] = biological target: T1, Kita-kyushu lung cancer antigen 1 (Homo sapiens); assay: Binding affinity to KK-LC-1 in KK-LC-1-positive human MKN-45 cells using FITC-labeled compound at 1 to 1000 uM incubated for 30 mins and measured by flow cytometry assay; type: cell-based; conditions: dose 1-1000 µM
[4] = Drug uptake in KK-LC-1-positive human NUGC-4 cells using FITC-labeled compound at 100 uM incubated for 10 to 70 mins and assessed as drug internalization measured by DAPI staining method; type: ADME, cell-based; conditions: nugc-4, 100 µM, time 10-70 min
NUGC-4 [5] = assay: Cytotoxicity against KK-LC-1-positive human NUGC-4 cells incubated for 72 hrs by CCK-8 assay; type: functional, cell-based; conditions: NUGC-4, 72 h
MKN-45 [6] = assay: Cytotoxicity against KK-LC-1-positive human MKN-45 cells incubated for 72 hrs by CCK-8 assay; type: functional, cell-based; conditions: MKN-45, 72 h
HGC-27 = assay: Cytotoxicity against KK-LC-1-negative human HGC-27 cells incubated for 72 hrs by CCK-8 assay; type: functional, cell-based; conditions: HGC-27, 72 h
[7] = Ratio IC50 for cytotoxicity against KK-LC-1-negative human HGC-27 cells to IC50 for cytotoxicity against KK-LC-1-positive human NUGC-4 cells
[8] = Ratio IC50 for cytotoxicity against KK-LC-1-negative human HGC-27 cells to IC50 for cytotoxicity against KK-LC-1-positive human MKN-45 cells
NUGC-4 [9] = assay: Cell cycle arrest in KK-LC-1-positive human NUGC-4 cells assessed as accumulation at G2/M phase at 20 nM measured after 24 hrs by propidium iodide staining based flow cytometric analysis (reference value: 21.5 +/- 0.7 %); type: functional
NUGC-4 [10] = assay: Cell cycle arrest in KK-LC-1-positive human NUGC-4 cells assessed as accumulation at G2/M phase at 40 nM measured after 24 hrs by propidium iodide staining based flow cytometric analysis (reference value: 21.5 +/- 0.7 %); type: functional
NUGC-4 [11] = assay: Cell cycle arrest in KK-LC-1-positive human NUGC-4 cells assessed as accumulation at G2/M phase at 100 nM measured after 24 hrs by propidium iodide staining based flow cytometric analysis (reference value: 21.5 +/- 0.7 %); type: functional
MKN-45 [12] = assay: Cell cycle arrest in KK-LC-1-positive human MKN-45 cells assessed as increase accumulation at G2/M phase at 20 to 100 nM measured after 24 hrs by propidium iodide staining based flow cytometric analysis; type: functional; conditions: dose 20-100 nM, DDE = dose-dependent effect
NUGC-4 [13] = assay: Cell cycle arrest in KK-LC-1-positive human NUGC-4 cells assessed as increase accumulation at G2/M phase at 100 nM measured after 0 to 48 hrs by propidium iodide staining based flow cytometric analysis; type: functional; conditions: time 0-48 hrs, TDE = time-dependent effect
MKN-45 [14] = assay: Cell cycle arrest in KK-LC-1-positive human MKN-45 cells assessed as increase accumulation at G2/M phase at 100 nM measured after 0 to 48 hrs by propidium iodide staining based flow cytometric analysis; type: functional; conditions: time 0-48 hrs, TDE = time-dependent effect
NUGC-4 [15] = assay: Inhibition of colony formation in KK-LC-1-positive human NUGC-4 cells assessed as decrease in colonies incubated for 24 hrs followed by exposure to 2 Gy gamma irradiation by crystal violet staining based clonogenic assay; type: functional, cell-based
MKN-45 [16] = assay: Inhibition of colony formation in KK-LC-1-positive human MKN-45 cells assessed as decrease in colonies incubated for 24 hrs followed by exposure to 2 Gy gamma irradiation by crystal violet staining based clonogenic assay; type: functional, cell-based
NUGC-4 [17] = assay: Induction of apoptosis in KK-LC-1-positive human NUGC-4 cells at 100 nM incubated for 24 hrs followed by exposure to 2 Gy gamma irradiation by AnnexinV/PI-staining based flow cytometry; type: functional, cell-based
MKN-45 [18] = assay: Induction of apoptosis in KK-LC-1-positive human MKN-45 cells at 100 nM incubated for 24 hrs followed by exposure to 2 Gy gamma irradiation by AnnexinV/PI-staining based flow cytometry; type: functional, cell-based
MKN-45 [19] = assay: Induction of DNA damage in KK-LC-1-positive human MKN-45 cells assessed as double strand breaks by measuring increase in gamma-H2AX foci formation at 100 nM incubated for 24 hrs followed by exposure to 2 Gy gamma irradiation by immunofluorescence staining method; type: functional, cell-based
[20] = Stability in human plasma assessed as compound remaining at 500 uM measured after 8 hrs by HPLC analysis; type: ADME, cell-free; conditions: read-out: Stability
[21] = Stability in human plasma assessed as compound remaining at 500 uM measured after 48 hrs by HPLC analysis; type: ADME, cell-free; conditions: read-out: Stability
[22] = Stability in PBS at 37 degreeC measured after 48 hrs by HPLC analysis; type: physicochemical; conditions: buffer
[23] = Biodistribution in tumor of nude mouse xenografted with KK-LC-1-positive human NUGC-4 cells using Cy5-labeled compound at 10 nmol, iv and measured after 24 hrs by near-infrared imaging method; type: ADME, organism-based, Neoplasm; conditions: in vivo
NUGC-4 [24] = assay: Induction of mitotic arrest in KK-LC-1-positive human NUGC-4 cells xenografted in nude mouse assessed as number of pHH3-positive nuclei in tumor at 4 nmol, iv administered as single dose and measured after 24 hrs by pHH3 immunohistochemical staining method relative to control; type: functional

CC[C@H](C)[C@@H]([C@@H](CC(=O)N1CCC[C@H]1[C@H](OC)[C@@H](C)C(=O)N[C@H](C)[C@@H](O)c1ccccc1)OC)N(C)C(=O)[C@@H](NC(=O)[C@@H](NC(=O)[C@H](C(C)C)N(C)C(=O)OCc1ccc(NC(=O)[C@H](CCCNC(N)=O)NC(=O)[C@@H](NC(=O)CCCCCN2C(=O)CC(SC[C@H](N)C(=O)N[C@H]3CSSC[C@@H](C(=O)O)NC(=O)[C@H]([C@@H](C)O)NC(=O)[C@H]([C@@H](C)O)NC(=O)[C@H](CC(C)C)NC(=O)[C@H](C)NC(=O)[C@H]([C@@H](C)O)NC(=O)[C@H](CC(N)=O)NC(=O)[C@H](CCCCN)NC3=O)C2=O)C(C)C)cc1)C(C)C)C(C)C (stereo not given in full) (I: H-CCKNTALTTC-OH / II: V[Cit][PABC][NMeV]VV[Dil][Dolaproine]-X1; linker I:1-II:N via Hexanoyl(6-succinimido-3yl); disulfide I:2-I:10)
Activity [1]: Active | Activity [2]: Active | Activity [3]: Active | Drug uptake [4]: Active | pIC50 (NUGC-4 [5]): 8.41 | pIC50 (MKN-45 [6]): 8.28 | pIC50 (HGC-27): 6.10 | Ratio IC50 [7]: 100 | Ratio IC50 [8]: 100 | Activity (NUGC-4 [9]): 30.9% | Activity (NUGC-4 [10]): 49.53% | Activity (NUGC-4 [11]): 67.4% | Activity (MKN-45 [12]): Dde | Activity (NUGC-4 [13]): Tde | Activity (MKN-45 [14]): Tde | inhibition (NUGC-4 [15]): Active | inhibition (MKN-45 [16]): Active | Activity (NUGC-4 [17]): Active | Activity (MKN-45 [18]): Active | Activity (MKN-45 [19]): Active | remaining at 8 h, 500 µM [20]: 42.5% | remaining at 48 h, 500 µM [21]: 13.2% | Stability [22]: Stable | Drug uptake [23]: Active | Activity (NUGC-4 [24]): 87
